Laboratory results reported in US20110092544A1, “FUNGICIDAL PYRIDINES” (E.I. DU PONT DE nemours and company, priority 2008, published 2011).

What was measured:
Type in all cases: in vivo
[1] = tested on: Erysiphe graminis f. sp. tritici; assay: Test A: wheat powdery mildew, preventive spray on wheat seedlings, visual disease rating; settings: for pest or weed control at 40 ppm: Blumeria graminis, 192 h
Description: (§1) General protocol for preparing test suspensions for Tests A-H: The test compounds were first dissolved in acetone in an amount equal to 3% of the final volume and then suspended at the desired concentration (in ppm) in acetone and purified water (50/50 mix) containing 250 ppm of the surfactant Trem® 014 (polyhydric alcohol esters). The resulting test suspensions were then used in tests A-H. Spraying a 200 ppm test suspension to the point of run-off on the test plants was the equivalent of a rate of 500 g/ha.
The test suspension was sprayed to the point of run-off on wheat seedlings. The following day the seedlings were inoculated with a spore dust of Erysiphe graminis f. sp. tritici (the causal agent of wheat powdery mildew) and incubated in a growth chamber at 20° C. for 8 days, after which time disease ratings were visually made.
(§2) Results for Tests A-H are given in Table A. In the table, a rating of 100 indicates 100% disease control and a rating of 0 indicates no disease control (relative to the controls). A dash (-) indicates no test results. All results are for compounds tested at 200 ppm except where the compound number is followed by “*” which indicates the compound was tested at 40 ppm.

[2] = tested on: Puccinia recondite f. sp. tritici; assay: Test B: wheat leaf rust, preventive spray on wheat seedlings, visual disease rating; settings: for pest or weed control at 40 ppm: 192 h
Description: as §1
(§3) The test suspension was sprayed to the point of run-off on wheat seedlings. The following day the seedlings were inoculated with a spore suspension of Puccinia recondite f. sp. tritici (the causal agent of wheat leaf rust) and incubated in a saturated atmosphere at 20° C. for 24 h, and then moved to a growth chamber at 20° C. for 7 days, after which time disease ratings were visually made.
as §2

Septoria tritici = assay: Test C: wheat leaf blotch, preventive spray on wheat seedlings, visual disease rating; settings: for pest or weed control at 40 ppm: Zymoseptoria tritici, 504 h
Description: as §1
as §3, with “Septoria” for “Puccinia recondite f. sp.”, “blotch)” for “rust)”, “48” for “24”, “and” for “and then”, “19 additional” for “7”
as §2

Septoria nodorum = assay: Test D: wheat glume blotch, preventive spray on wheat seedlings, visual disease rating; settings: for pest or weed control at 40 ppm: Parastagonospora nodorum, 216 h
Description: as §1
as §3, with “Septoria nodorum” for “Puccinia recondite f. sp. tritici”, “glume blotch)” for “leaf rust)”, “48” for “24”
as §2

Alternaria solani = assay: Test E: tomato early blight, preventive spray on tomato seedlings, visual disease rating; settings: for pest or weed control at 40 ppm: Alternaria solani, 168 h
Description: as §1
(§4) The test suspension was sprayed to the point of run-off on tomato seedlings. The following day the seedlings were inoculated with a spore suspension of Alternaria solani (the causal agent of tomato early blight) and incubated in a saturated atmosphere at 27° C. for 48 h, and then moved to a growth chamber at 20° C. for 5 days, after which time disease ratings were visually made.
as §2

Botrytis cinerea = assay: Test F: tomato botrytis, preventive spray on tomato seedlings, visual disease rating; settings: for pest or weed control at 40 ppm: Botrytis cinerea, 120 h
Description: as §1
as §4, with “Botrytis cinerea” for “Alternaria solani”, “botrytis)” for “early blight)”, “in” for “in a”, “20°” for “27°”, “24°” for “20°”, “3 additional” for “5”
as §2

[3] = 200 ppm, 100 = 100% disease control, 0 = no control
[4] = 40 ppm (compound number followed by *)

Row | SMILES | Test A rating (% disease control) [1, 3] | Test B rating (% disease control) [2, 3] | Test C rating (% disease control) (Septoria tritici; [3]) | Test D rating (% disease control) (Septoria nodorum; [3]) | Test E rating (% disease control) (Alternaria solani; [3]) | Test F rating (% disease control) (Botrytis cinerea; [3]) | Test A rating (% disease control) [1, 4] | Test B rating (% disease control) [2, 4] | Test C rating (% disease control) (Septoria tritici; [4]) | Test D rating (% disease control) (Septoria nodorum; [4]) | Test E rating (% disease control) (Alternaria solani; [4]) | Test F rating (% disease control) (Botrytis cinerea; [4]) | also measured
1 | COc1cc(OC)cc(-c2c(C(C)(C)OC(C)=O)cnc(C)c2-c2c(F)cc(F)cc2F)c1 [Compound 102] | 98% | 92% | 97% | 0% | 91% | 98% | – | – | – | – | – | – | –
2 | COc1cc(OC)cc(-c2c(C(O)C(C)C)cnc(C)c2-c2c(F)cc(F)cc2F)c1 (stereo not drawn) [Compound 103] | 100% | 100% | 95% | 98% | 100% | 99% | – | – | – | – | – | – | –
3 | COc1cc(OC)cc(-c2c(Cn3cncn3)cnc(C)c2-c2c(F)cc(F)cc2F)c1 [Compound 104] | 100% | 100% | 98% | 99% | 100% | 99% | – | – | – | – | – | – | –
4 | COc1cc(OC)cc(-c2c(C(C)=O)cnc(C)c2-c2c(F)ccc(OC)c2F)c1 [Compound 105] | 100% | 99% | 93% | 0% | 0% | 98% | – | – | – | – | – | – | –
5 | COc1cc(OC)cc(-c2c(C(C)(C)O)cnc(C)c2-c2c(F)ccc(OC)c2F)c1 [Compound 106] | 96% | 100% | 98% | 0% | 99% | 98% | – | – | – | – | – | – | –
6 | COc1cc(OC)cc(-c2c(C(C)O)cnc(C)c2-c2c(F)cc(F)cc2F)c1 (stereo not drawn) [Compound 107] | 100% | 100% | 98% | 98% | 100% | 99% | – | – | – | – | – | – | –
7 | COc1cc(OC)cc(-c2c(Cn3ccc(C(F)(F)F)n3)cnc(C)c2-c2c(F)cc(F)cc2F)c1 [Compound 108] | 64% | 85% | 71% | 0% | 0% | 87% | – | – | – | – | – | – | –
8 | COc1cc(OC)cc(-c2c(COc3ccccc3)cnc(C)c2-c2c(F)cc(F)cc2F)c1 [Compound 109] | 98% | 97% | 97% | 0% | 0% | 92% | – | – | – | – | – | – | –
9 | COc1cc(OC)cc(-c2c(CN3CCCCC3)cnc(C)c2-c2c(F)cc(F)cc2F)c1 [Compound 111] | 93% | 97% | 91% | 0% | 0% | 99% | – | – | – | – | – | – | –
10 | COc1cc(OC)cc(-c2c(C=O)cnc(C)c2-c2c(F)cc(F)cc2F)c1 [Compound 112] | – | – | – | – | – | – | 96% | 80% | 93% | 0% | 9% | 96% | –
11 | COc1cc(OC)cc(-c2c(C=O)cnc(C)c2-c2c(F)ccc(OC)c2F)c1 [Compound 113] | – | – | – | – | – | – | 0% | 89% | 76% | 0% | 9% | 79% | –
12 | CCC(O)c1cnc(C)c(-c2c(F)ccc(OC)c2F)c1-c1cc(OC)cc(OC)c1 (stereo not drawn) [Compound 115] | – | – | – | – | – | – | 93% | 96% | 98% | 0% | 99% | 98% | –
13 | COc1cc(OC)cc(-c2c(C(C)O)cnc(C)c2-c2c(F)ccc(OC)c2F)c1 (stereo not drawn) [Compound 116] | – | – | – | – | – | – | 94% | 89% | 95% | 0% | 99% | 99% | –
14 | COc1cc(OC)c(Cl)c(-c2c(C(C)=O)cnc(C)c2-c2c(F)cc(F)cc2F)c1 [Compound 118] | – | – | – | – | – | – | 100% | 100% | 96% | 0% | 99% | 100% | –
15 | COc1cc(OC)c(Cl)c(-c2c(C(C)(C)O)cnc(C)c2-c2c(F)cc(F)cc2F)c1 [Compound 119] | – | – | – | – | – | – | 99% | 100% | 98% | 98% | 100% | 100% | –
16 | COc1cc(OC)cc(-c2c(C(N)=O)cnc(C)c2-c2c(F)cc(F)cc2F)c1 [Compound 120] | – | – | – | – | – | – | 0% | 91% | 87% | 0% | 47% | 79% | –
17 | COc1cc(OC)cc(-c2c(-c3ccccc3)cnc(C)c2-c2c(F)cc(F)cc2F)c1 [Compound 121, 4-(3,5-dimethoxyphenyl)-2-methyl-5-phenyl-3-(2,4,6-trifluorophenyl)pyridine] | – | – | – | – | – | – | – | – | – | – | – | – | pest or weed control at 40 ppm [1, 4]: 99%; pest or weed control at 40 ppm [2, 4]: 100%; pest or weed control at 40 ppm (Septoria tritici; [4]): 99%; pest or weed control at 40 ppm (Septoria nodorum; [4]): 94%; pest or weed control at 40 ppm (Alternaria solani; [4]): 99%; pest or weed control at 40 ppm (Botrytis cinerea; [4]): 100%
18 | COc1cc(OC)cc(-c2c(Br)cnc(C)c2-c2c(F)cc(F)cc2F)c1 [Compound 122, 5-bromo-4-(3,5-dimethoxyphenyl)-2-methyl-3-(2,4,6-trifluorophenyl)pyridine] | – | – | – | – | – | – | – | – | – | – | – | – | pest or weed control at 40 ppm [1, 4]: 98%; pest or weed control at 40 ppm [2, 4]: 99%; pest or weed control at 40 ppm (Septoria tritici; [4]): 99%; pest or weed control at 40 ppm (Septoria nodorum; [4]): 0%; pest or weed control at 40 ppm (Alternaria solani; [4]): 0%; pest or weed control at 40 ppm (Botrytis cinerea; [4]): 100%
19 | COc1cc(OC)cc(-c2c(Cn3cc(C#N)cn3)cnc(C)c2-c2c(F)cc(F)cc2F)c1 [Compound 123] | – | – | – | – | – | – | 0% | 0% | 53% | 0% | 0% | 69% | –
20 | COc1cc(OC)cc(-c2c(C(C)C#N)cnc(C)c2-c2c(F)cc(F)cc2F)c1 (stereo not drawn) [Compound 125] | – | – | – | – | – | – | 96% | 99% | 96% | 90% | 99% | 100% | –
21 | COc1cc(OC)c(Cl)c(-c2c(-c3ccccc3F)cnc(C)c2-c2ccc(F)cc2)c1 [Compound 126] | – | – | – | – | – | – | 90% | 100% | 99% | 100% | 97% | 100% | –
22 | COc1cc(OC)cc(-c2c(-c3ccc(Cl)nc3)cnc(C)c2-c2c(F)cc(F)cc2F)c1 [Compound 127] | – | – | – | – | – | – | 90% | 97% | 99% | 0% | 0% | 99% | –
